In US20050197350A1, “Novel quinoline, tetrahydroquinazoline, and pyrimidine derivatives and methods of treatment related to the use thereof” (TAISHO PHARMACEUTICAL CO., LTD., priority 2003, published 2005):
Counter-ions that a name gives are not always drawn.

These compounds were tested against MCH receptor (Homo sapiens, UniProt Q99705) (assay: High throughput functional screening FLIPR/FDSS6000 (intracellular Ca2+ evoked by MCH)). Details: FLIPR/FDSS, antagonist activity vs 50 nM MCH; class by percent of control at 10^−7 M or IC50; table after the classification; read-out: class.
Assay type: cell-based
Summary of the method: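 For antagonist testing, compound-treated cells (30 min, 37 °C) were stimulated with 50 nM MCH and intracellular Ca2+ followed by Fluo4 fluorescence on FLIPR/FDSS6000. Receptor was a constitutively active, non-endogenous MCH receptor; dye loading 4 μM Fluo4-AM, 1 h, 37 °C.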

IC50 [nM]	Structure (SMILES)
50 to 200	CN(C)c1nc(N[C@H]2CC[C@@H](NC(=O)c3cccnc3Oc3ccccc3)CC2)ncc1Br [Example 3141, N-[cis-4-(5-Bromo-4-dimethylamino-pyrimidin-2-ylamino)-cyclohexyl]-2-phenoxy-nicotinamide hydrochloride]
> 200	Cc1cc(C)nc(N[C@H]2CC[C@@H](NC(=O)c3ccc(F)c(F)c3)CC2)n1 [Example 3142, N-[cis-4-(4,6-Dimethyl-pyrimidin-2-ylamino)-cyclohexyl]-3,4-difluoro-benzamide hydrochloride]
> 200	Cc1cc(C)nc(N[C@H]2CC[C@@H](NC(=O)c3cccnc3Oc3ccccc3)CC2)n1 [Example 3143, N-[cis-4-(4,6-Dimethyl-pyrimidin-2-ylamino)-cyclohexyl]-2-phenoxy-nicotinamide hydrochloride]
> 200	O=C(N[C@H]1CC[C@@H](Nc2ncccn2)CC1)c1ccc(F)c(F)c1 [Example 3144, 3,4-Difluoro-N-[cis-4-(pyrimidin-2-ylamino)-cyclohexyl]-benzamide hydrochloride]
> 200	CN(C)c1ccnc(N[C@H]2CC[C@@H](CNC(=O)c3cccnc3Oc3ccccc3)CC2)n1 [Example 3145, N-[cis-4-(4-Dimethylamino-pyrimidin-2-ylamino)-cyclohexylmethyl]-2-phenoxy-nicotinamide hydrochloride]
< 50	O=C(N[C@H]1CC[C@@H](Nc2ccc3ccccc3n2)CC1)c1cccc(O)c1 [Example 3146, 3-Hydroxy-N-[cis-4-(quinolin-2-ylamino)-cyclohexyl]-benzamide hydrochloride]
50 to 200	COC(=O)c1cccc(C(=O)N[C@H]2CC[C@@H](Nc3ccc4ccccc4n3)CC2)c1 [Example 3147, N-[cis-4-(Quinolin-2-ylamino)-cyclohexyl]-isophthalamic acid methyl ester hydrochloride]
> 200	O=C(N[C@H]1CC[C@@H](Nc2ccc3ccccc3n2)CC1)c1cc(C(F)(F)F)cc(C(F)(F)F)c1 [Example 3148, N-[cis-4-(Quinolin-2-ylamino)-cyclohexyl]-3,5-bis-trifluoromethyl-benzamide hydrochloride]
50 to 200	O=C(N[C@H]1CC[C@@H](Nc2ccc3ccccc3n2)CC1)c1cccc(OC(F)(F)F)c1 [Example 3149, N-[cis-4-(Quinolin-2-ylamino)-cyclohexyl]-3-trifluoromethoxy-benzamide hydrochloride]
> 200	O=C(O)c1cccc(C(=O)N[C@H]2CC[C@@H](Nc3ccc4ccccc4n3)CC2)c1 [Example 3150, N-[cis-4-(Quinolin-2-ylamino)-cyclohexyl]-isophthalamic acid]
< 50	CCN(CC(=O)N[C@H]1CC[C@@H](Nc2ccc3ccccc3n2)CC1)c1ccccc1 [Example 3151, C-(Ethyl-phenyl-amino)-N-[cis-4-(quinolin-2-ylamino)-cyclohexyl]-acetamide dihydrochloride]
< 50	O=C(N[C@H]1CC[C@@H](Nc2ccc3ccccc3n2)CC1)c1cc(F)cc(F)c1 [Example 3152, 3,5-Difluoro-N-[cis-4-(quinolin-2-ylamino)-cyclohexyl]-benzamide hydrochloride]
< 50	O=C(N[C@H]1CC[C@@H](Nc2ccc3ccccc3n2)CC1)c1ccc(Cl)c(F)c1 [Example 3153, 4-Chloro-3-fluoro-N-[cis-4-(quinolin-2-ylamino)-cyclohexyl]-benzamide-hydrochloride]
< 50	CCN(CC(=O)N[C@H]1CC[C@@H](Nc2ccc3ccccc3n2)CC1)c1ccc(Cl)cc1 [Example 3154, C-[(4-Chloro-phenyl)-ethyl-amino]-N-[cis-4-(quinolin-2-ylamino)-cyclohexyl]-acetamide dihydrochloride]
> 200	NC(=O)c1cccc(C(=O)N[C@H]2CC[C@@H](Nc3ccc4ccccc4n3)CC2)c1 [Example 3155, N-[cis-4-(Quinolin-2-ylamino)cyclohexyl]-isophthalamide hydrochloride]
> 200	O=C(N[C@H]1CC[C@@H](NCc2ccc3ccccc3n2)CC1)c1ccc(F)c(F)c1 [Example 3156, 3,4-Difluoro-N-{cis-4-[(quinolin-2-ylmethyl)-amino]-cyclohexyl}-benzamide dihydrochloride]
50 to 200	Cc1cc(N[C@H]2CC[C@@H](NC(=O)c3cc(C(F)(F)F)cc(C(F)(F)F)c3)CC2)nc2ccccc12 [Example 3157, N-[cis-4-(4-Methyl-quinolin-2-ylamino)-cyclohexyl]-3,5-bis-trifluoromethyl-benzamide hydrochloride]
< 50	Cc1cc(N[C@H]2CC[C@@H](NC(=O)c3cccc(OC(F)(F)F)c3)CC2)nc2ccccc12 [Example 3158, N-[cis-4-(4-Methyl-quinolin-2-ylamino)-cyclohexyl]-3-trifluoromethoxy-benzamide hydrochloride]

Second part, the compound before the results:

Structure (SMILES)	IC50 [nM]
Cc1cnc(N[C@H]2CC[C@@H](NC(=O)c3cccnc3Oc3ccccc3Br)CC2)nc1N(C)C [Example 3124, 2-(2-Bromo-phenoxy)-N-[cis-4-(4-dimethylamino-5-methyl-pyrimidin-2-ylamino)-cyclohexyl]-nicotinamide hydrochloride]	< 50
Cc1cnc(N[C@H]2CC[C@@H](CNC(=O)Nc3cccc(Cl)c3Cl)CC2)nc1N(C)C [Example 3125, 1-(2,3-Dichloro-phenyl)-3-[cis-4-(4-dimethylamino-5-methyl-pyrimidin-2-ylamino)-cyclohexylmethyl]-urea hydrochloride]	< 50
Cc1cc(N(C)C)nc(N[C@H]2CC[C@@H](NC(=O)c3cccnc3Oc3ccccc3)CC2)n1 [Example 3126, N-[cis-4-(4-Dimethylamino-6-methyl-pyrimidin-2-ylamino)-cyclohexyl]-2-phenoxy-nicotinamide hydrochloride]	< 50
Cc1cc(N(C)C)nc(N[C@H]2CC[C@@H](NC(=O)c3ccc(F)c(F)c3)CC2)n1 [Example 3127, N-[cis-4-(4-dimethylamino-C-methyl-pyrimidin-2-ylamino)-cyclohexyl]-3,4-difluoro-benzamide hydrochloride]	< 50
Cc1cc(N(C)C)nc(N[C@H]2CC[C@@H](NC(=O)c3cccc(Cl)c3)CC2)n1 [Example 3128, 3-Chloro-N-[cis-4-(4-dimethylamino-6-methyl-pyrimidin-2-ylamino)-cyclohexyl]-benzamide hydrochloride]	< 50
CN(C)c1ccnc(N[C@H]2CC[C@@H](NC(=O)c3cccnc3Oc3ccccc3)CC2)n1 [Example 3129, N-[cis-4-(4-Dimethylamino-pyrimidin-2-ylamino)-cyclohexyl]-2-phenoxy-nicotinamide hydrochloride]	50 to 200
O=C(N[C@H]1CC[C@@H](Nc2nccc(C(F)(F)F)n2)CC1)c1ccc(F)c(F)c1 [Example 3130, 3,4-Difluoro-N-[cis-4-(4-trifluoromethyl-pyrimidin-2-yl)amino-cyclohexyl]-benzamide hydrochloride]	> 200
COc1ccnc(N[C@H]2CC[C@@H](NC(=O)c3ccc(F)c(F)c3)CC2)n1 [Example 3131, 3,4-Difluoro-N-[cis-4-(4-methoxy-pyrimidin-2-ylamino)-cyclohexyl]-benzamide hydrochloride]	> 200
COc1cc(OC)nc(N[C@H]2CC[C@@H](NC(=O)c3ccc(F)c(F)c3)CC2)n1 [Example 3132, N-[cis-4-(4,6-Dimethoxy-pyrimidin-2-ylamino)-cyclohexyl]-3,4-difluoro-benzamide hydrochloride]	> 200
O=C(N[C@H]1CC[C@@H](Nc2nccc(C(F)(F)F)n2)CC1)c1cccnc1Oc1ccccc1 [Example 3133, 2-Phenoxy-N-[cis-4-(4-trifluoromethyl-pyrimidin-2-yl)-amino-cyclohexyl]-nicotinamide hydrochloride]	> 200
COc1ccnc(N[C@H]2CC[C@@H](NC(=O)c3cccnc3Oc3ccccc3)CC2)n1 [Example 3134, N-[cis-4-(4-Methoxy-pyrimidin-2-ylamino)-cyclohexyl]-2-phenoxy-nicotinamide hydrochloride]	> 200
COc1cc(OC)nc(N[C@H]2CC[C@@H](NC(=O)c3cccnc3Oc3ccccc3)CC2)n1 [Example 3135, N-[cis-4-(4,6-Dimethoxy-pyrimidin-2-ylamino)-cyclohexyl]-2-phenoxy-nicotinamide hydrochloride]	> 200
CN(C)c1nc(N[C@H]2CC[C@@H](NC(=O)c3cccnc3Oc3ccccc3)CC2)ncc1-c1ccccc1 [Example 3136, N-[cis-4-(4-Dimethylamino-5-phenyl-pyrimidin-2-ylamino)-cyclohexyl]-2-phenoxy-nicotinamide hydrochloride]	> 200
CN(C)N(c1ncc(Cl)cn1)[C@H]1CC[C@@H](NC(=O)c2cccnc2Oc2ccccc2)CC1 [Example 3137, N-[cis-4-(5-Chloro-dimethylamino-pyrimidin-2-ylamino)-cyclohexyl]-2-phenoxy-nicotinamide hydrochloride]	50 to 200
CN(C)c1nc(N[C@H]2CC[C@@H](NC(=O)c3ccc(F)c(F)c3)CC2)ncc1-c1ccccc1 [Example 3138, N-[cis-4-(4-Dimethylamino-5-phenyl-pyrimidin-2-ylamino)-cyclohexyl]-3,4-difluoro-benzamide hydrochloride]	50 to 200
CN(C)c1nc(N[C@H]2CC[C@@H](NC(=O)c3ccc(F)c(F)c3)CC2)ncc1Cl [Example 3139, N-[cis-4-(5-Chloro-4-dimethylamino-pyrimidin-2-ylamino)-cyclohexyl]-3,4-difluoro-benzamide hydrochloride]	50 to 200
CN(C)c1nc(N[C@H]2CC[C@@H](NC(=O)c3cccnc3Oc3ccccc3)CC2)ncc1F [Example 3140, N-[cis-4-(4-Dimethylamino-5-fluoro-pyrimidin-2-ylamino)-cyclohexyl]-2-phenoxy-nicotinamide hydrochloride]	50 to 200
